Results as given in the NIST ThermoML archive (doi:10.1021/je060305e).
Numbers after ± are expanded uncertainties.

Experiment: activity coefficient (dimensionless); of the first substance listed, at infinite dilution; xn = mol fraction of the nth substance listed
Details: Liquid, Chromatography, x1 = 0

| activity coefficient (303.15 K) | activity coefficient (313.15 K) | activity coefficient (323.15 K) | activity coefficient (333.15 K) | activity coefficient (343.15 K) | activity coefficient (353.15 K) | activity coefficient (363.15 K) | SMILES |
| --- | --- | --- | --- | --- | --- | --- | --- |
| 0.734 ± 0.062 | 0.742 ± 0.063 | 0.752 ± 0.063 | 0.757 ± 0.064 | 0.768 ± 0.065 | – | – | CC#N [acetonitrile] + CCCCn1cc[n+](C)c1.F[B-](F)(F)F |
| 0.813 ± 0.068 | 0.716 ± 0.061 | 0.646 ± 0.056 | 0.596 ± 0.053 | 0.529 ± 0.048 | – | – | CO [methanol] + CCCCn1cc[n+](C)c1.F[B-](F)(F)F |
| 1.53 ± 0.13 | 1.54 ± 0.13 | 1.55 ± 0.13 | 1.56 ± 0.13 | 1.57 ± 0.13 | – | – | C1COCCO1 [1,4-dioxane] + CCCCn1cc[n+](C)c1.F[B-](F)(F)F |
| 6.96 ± 0.6 | 5.91 ± 0.51 | 5.15 ± 0.45 | 4.56 ± 0.39 | 4 ± 0.34 | – | – | CCCCCO [pentan-1-ol] + CCCCn1cc[n+](C)c1.F[B-](F)(F)F |
| 1.59 ± 0.14 | 1.39 ± 0.12 | 1.27 ± 0.11 | 1.17 ± 0.097 | 1.07 ± 0.088 | – | – | CCO [ethanol] + CCCCn1cc[n+](C)c1.F[B-](F)(F)F |
| 3.85 ± 0.33 | 3.44 ± 0.3 | 3.12 ± 0.27 | 2.79 ± 0.24 | 2.56 ± 0.22 | – | – | CCC(C)O (stereo not given) [butan-2-ol] + CCCCn1cc[n+](C)c1.F[B-](F)(F)F |
| 4.14 ± 0.36 | 3.67 ± 0.32 | 3.3 ± 0.28 | 2.98 ± 0.26 | 2.72 ± 0.23 | – | – | CCCCO [butan-1-ol] + CCCCn1cc[n+](C)c1.F[B-](F)(F)F |

The remaining lines, values behind:

| SMILES | activity coefficient (303.15 K) | activity coefficient (313.15 K) | activity coefficient (323.15 K) | activity coefficient (333.15 K) | activity coefficient (343.15 K) | activity coefficient (353.15 K) | activity coefficient (363.15 K) |
| --- | --- | --- | --- | --- | --- | --- | --- |
| CC(C)CCO [3-methylbutan-1-ol] + CCCCn1cc[n+](C)c1.F[B-](F)(F)F | 6.63 ± 0.57 | 5.74 ± 0.49 | 5.08 ± 0.44 | 4.53 ± 0.39 | 4.08 ± 0.35 | – | – |
| CC(C)CO [2-methyl-1-propanol] + CCCCn1cc[n+](C)c1.F[B-](F)(F)F | 2.63 ± 0.23 | 2.22 ± 0.19 | 1.86 ± 0.16 | 1.66 ± 0.14 | 1.53 ± 0.13 | – | – |
| CC(C)=O [acetone] + CCCCn1cc[n+](C)c1.F[B-](F)(F)F | 1.16 ± 0.096 | 1.19 ± 0.098 | 1.21 ± 0.1 | 1.23 ± 0.1 | 1.25 ± 0.1 | – | – |
| CC(C)O [propan-2-ol] + CCCCn1cc[n+](C)c1.F[B-](F)(F)F | 2.63 ± 0.23 | 2.22 ± 0.19 | 1.86 ± 0.16 | 1.66 ± 0.14 | 1.53 ± 0.13 | – | – |
| ClC(Cl)(Cl)Cl [tetrachloromethane] + CCCCn1cc[n+](C)c1.F[B-](F)(F)F | 5.73 ± 0.49 | 6.09 ± 0.53 | 6.27 ± 0.54 | 6.42 ± 0.55 | 6.52 ± 0.56 | – | – |
| CCCO [propan-1-ol] + CCCCn1cc[n+](C)c1.F[B-](F)(F)F | 2.8 ± 0.24 | 2.48 ± 0.21 | 2.23 ± 0.19 | 1.96 ± 0.17 | 1.64 ± 0.14 | – | – |
| O=C1CCCCC1 [cyclohexanone] + CCCCn1cc[n+](C)c1.F[B-](F)(F)F | – | – | 2.64 ± 0.23 | 2.62 ± 0.23 | 2.61 ± 0.23 | 2.58 ± 0.22 | 2.57 ± 0.22 |
| CCOC(C)=O [ethyl acetate] + CCCCn1cc[n+](C)c1.F[B-](F)(F)F | 3.3 ± 0.28 | 3.34 ± 0.29 | 3.36 ± 0.29 | 3.39 ± 0.29 | 3.41 ± 0.29 | – | – |
| ClCCl [dichloromethane] + CCCCn1cc[n+](C)c1.F[B-](F)(F)F | 1.1 ± 0.091 | 1.15 ± 0.095 | 1.2 ± 0.099 | 1.24 ± 0.1 | 1.28 ± 0.11 | – | – |
| ClC(Cl)Cl [trichloromethane] + CCCCn1cc[n+](C)c1.F[B-](F)(F)F | 1.11 ± 0.092 | 1.21 ± 0.1 | 1.28 ± 0.11 | 1.36 ± 0.11 | 1.43 ± 0.12 | – | – |
